This is an account of results in patent US9198426B2, “Use of 5 pyridin-4-yl-1,3-thiazoles for controlling phytopathogenic fungi” (Bayer Intellectual Property GmbH, priority 2008, dated 2015).

A short description of this data set: physchem. The format is physicochemical.

Marks after values point to notes of the source that are not given here.

In the case of `CC(C)c1nc(-c2ccc(F)cc2)c(-c2ccncc2)s1` [compound 43], the log p is, setting by setting: (pH 2.7) 2.56^[b]; (pH 7.8) 3.71^[c];.
In the case of `CCc1nc(-c2ccc(F)cc2)c(-c2ccnc(N(C)C(C)=O)c2)s1` [compound 68], the log p (pH 2.7) was 2.71^[b].
What is called chromatographic logP is lipophilicity estimated from chromatographic retention. A lower chromatographic logP goes with a more hydrophilic compound. On to `CCc1nc(-c2ccc(F)cc2)c(-c2ccnc(NC3CC3)c2)s1` [Ex. 72, N-Cyclopropyl-4-[2-ethyl-4-(4-fluorophenyl)-1,3-thiazol-5-yl]pyridine-2-amine], for which the chromatographic logP by setting is: (pH 2.7) 1.74; (pH 7.8) 3.61.
In turn, `O=C(c1ccc(Cl)s1)C(Br)c1ccncc1` (centres unmarked) [2-Bromo-1-(5-chloro-2-thienyl)-2-(pyridin-4-yl)ethanone] registered a chromatographic logP (pH 2.7) of 2.18.
Turning to `CCc1nc(-c2ccc(F)cc2)c(-c2ccnc(NC(=O)OC(C)(C)C)c2)s1` [compound 65], for the setting “pH 2.7”, the log p is 4.63^[b].
Regarding `CCc1nc(-c2ccc(F)cc2)c(-c2ccnc(N(S(C)(=O)=O)S(C)(=O)=O)c2)s1` [compound 92], the log p is, setting by setting: (pH 2.7) 3.23^[b]; (pH 7.8) 3.24^[c];.
Turning to `CCc1nc(-c2cccs2)c(-c2ccncc2)s1` [compound 103], the log p (pH 2.7) was 1.94^[b].
Take `CCc1nc(-c2ccc(F)cc2)c(-c2ccnc(NC(C)CO)c2)s1` (centres unmarked) [compound 71]: the log p (pH 2.7) is 1.44^[b].
Regarding `CCc1nc(-c2ccc(F)cc2)c(-c2ccnc(NC(=O)C(C)(C)C)c2)s1` [compound 51], for the setting “pH 2.7”, the log p is 4.18^[b].
Turning to `CCCCc1nc(-c2ccc(F)cc2)c(-c2ccnc(NC(=O)c3ccccc3)c2)s1` [compound 66], the log p (pH 2.7) was 5.07^[b].
As to `CCc1nc(-c2ccc(Cl)s2)c(-c2ccncc2)s1` [compound 42], the log p (pH 2.7) is 3.06^[b] and the log p (pH 7.8) was 3.88^[c];.
Where the note is “pH 2.7”, `CCc1nc(-c2ccc(F)cc2)c(-c2ccnc(NCc3ccccc3)c2)s1` [Ex. 59, N-Benzyl-4-[2-ethyl-4-(4-fluorophenyl)-1,3-thiazol-5-yl]pyridine-2-amine] showed a chromatographic logP of 2.32.
On to `CCc1nc(-c2ccc(F)cc2)c(-c2ccnc(NC(=O)COC)c2)s1` [compound 81], for which the log p is 3.17^[b] (pH 2.7) and 3.21^[c]; (pH 7.8).
On to `CCc1nc(-c2ccc(F)cc2)c(-c2ccnc(NC(C)C)c2)s1` [compound 101], for which the log p was 1.73^[b] (pH 2.7) and 4.11^[c]; (pH 7.8).
On to `CCc1nc(-c2ccc(F)cc2)c(-c2ccnc(NC(C)COC)c2)s1` (centres unmarked) [compound 70], for which the log p (pH 2.7) was 1.78^[b].
For the molecule `CCc1nc(-c2ccc(F)cc2)c(-c2ccnc(NC(=O)CCc3ccccc3)c2)s1` [compound 55], for the setting “pH 2.7”, the log p is 4.23^[b].
As to `CCc1nc(-c2ccc(F)cc2)c(-c2ccnc(N(C(C)=O)C(C)=O)c2)s1` [compound 97], the log p was 2.95^[b] (pH 2.7) and 2.95^[c]; (pH 7.8).
With `CCNc1cc(-c2sc(CC)nc2-c2ccc(F)cc2)ccn1` [compound 76], the log p runs as follows: (pH 2.7) 1.54^[b]; (pH 7.8) 3.64^[c];.
Turning to `Cc1cc(-c2sc(C(C)C)nc2-c2ccc(F)cc2)ccn1` [Ex. 100, 4-[4-(4-Fluorophenyl)-2-isopropyl-1,3-thiazol-5-yl]-2-methylpyridine], the chromatographic logP runs as follows: (pH 2.7) 2.1; (pH 7.8) 4.06.
`CCc1nc(-c2ccc(F)cc2)c(-c2ccnc(NC(=O)OC(C)C)c2)s1` [compound 94]: the log p runs as follows: (pH 2.7) 4.08^[b]; (pH 7.8) 4.18^[c];.
For `CCc1nc(-c2ccc(F)cc2)c(-c2ccnc(NCC(C)OC)c2)s1` (centres unmarked) [compound 78], in that order: 1.73^[b] and 3.67^[c];.
On to `CCc1nc(-c2ccc(F)cc2)c(-c2ccnc(NC(=O)c3ccc(OC)cc3)c2)s1` [compound 53], for which, under “pH 2.7”, the log p was 4.04^[b].
Turning to `CCc1nc(-c2ccc(F)cc2)c(-c2ccnc(NCCc3ccccc3)c2)s1` [compound 62], under “pH 2.7”, the log p is 2.17^[b].
With `CCCC(=O)Nc1cc(-c2sc(CC)nc2-c2ccc(F)cc2)ccn1` [Ex. 83, N-{4-[2-Ethyl-4-(4-fluorophenyl)-1,3-thiazol-5-yl]pyridin-2-}butanamide], the log p runs as follows: (pH 2.7) 3.45^[b]; (pH 7.8) 3.58^[c];.
Regarding `CCc1nc(-c2ccc(F)cc2)c(-c2ccnc(NC3CCCC3)c2)s1` [compound 63], for the setting “pH 2.7”, the log p is 1.94^[b].
On to `CCc1nc(-c2ccc(F)cc2)c(-c2ccnc(NC(=O)C3CCC3)c2)s1` [compound 84], for which the log p was 3.68^[b] (pH 2.7) and 3.82^[c]; (pH 7.8).
Take `C=CCNc1cc(-c2sc(CC)nc2-c2ccc(F)cc2)ccn1` [compound 74]: the log p is 1.67^[b] (pH 2.7) and 3.8^[c]; (pH 7.8).
Take `CCc1nc(-c2ccc(C)c(C)c2)c(-c2ccncc2)s1` [compound 48]: for the setting “pH 2.7”, the log p is 2.49^[b].
As to `CCc1nc(-c2ccc(F)cc2)c(-c2ccnc(NC(=O)C3CC3)c2)s1` [compound 86], the log p (pH 2.7) is 3.22^[b] and the log p (pH 7.8) is 3.37^[c];.
On to `CCc1nc(-c2cccc(C(F)(F)F)c2)c(-c2ccncc2)s1` [compound 49], for which the log p (pH 2.7) was 3^[b].
Take `CCc1nc(-c2ccc(F)cc2)c(-c2ccnc(NC(C)c3ccccc3)c2)s1` (centres unmarked) [compound 61]: the log p (pH 2.7) was 2.39^[b].
`CC(C)(C)c1nc(-c2ccc(F)cc2)c(-c2ccncc2)s1` [compound 46]: under “pH 2.7”, the log p was 3.29^[b].
Regarding `CCc1nc(-c2ccc(F)cc2)c(-c2ccnc(NC(=O)OC)c2)s1` [compound 87], the log p (pH 2.7) was 3.14^[b] and the log p (pH 7.8) is 3.22^[c];.
With `CCc1nc(-c2ccc(F)cc2)c(-c2ccnc(NC(=O)CCl)c2)s1` [compound 98], the log p is, setting by setting: (pH 2.7) 3.29^[b]; (pH 7.8) 3.32^[c];.
Consider `CCOC(=O)Nc1cc(-c2sc(CC)nc2-c2ccc(F)cc2)ccn1` [compound 85], for which the log p by setting is: (pH 2.7) 3.61^[b]; (pH 7.8) 3.69^[c];.
For `CCc1nc(-c2ccc(F)cc2)c(-c2ccnc(N(C(C)=O)C3CC3)c2)s1` [Ex. 80, N-Cyclopropyl-N-{4-[2-ethyl-4-(4-fluorophenyl)-1,3-thiazol-5-yl]pyridin-2-yl}acetamide], the chromatographic logP runs as follows: (pH 2.7) 2.81; (pH 7.8) 2.88.
Turning to `CCc1nc(-c2ccc(F)cc2)c(-c2ccnc(NC(=O)c3ccsc3)c2)s1` [compound 57], the log p (pH 2.7) was 3.83^[b].
Turning to `CCc1nc(-c2ccc(F)cc2)c(-c2ccnc(NCC(C)O)c2)s1` (centres unmarked) [compound 77], the log p is, setting by setting: (pH 2.7) 1.44^[b]; (pH 7.8) 2.74^[c];.
Regarding `CCc1nc(-c2ccc(F)cc2)c(-c2ccnc(C(=O)NC3CC3)c2)s1` [Ex. 75, N-Cyclopropyl-4-[2-ethyl-4-(4-fluorophenyl)-1,3-thiazol-5-yl]pryridine-2-carboxamide], the log p is 3.46^[b] (pH 2.7) and 3.5^[c]; (pH 7.8).
On to `Cc1nc(-c2ccc(F)cc2)c(-c2ccncc2)s1` [compound 44], for which, where the note is “pH 2.7”, the log p was 1.48^[b].
As for `CCc1nc(-c2ccc(F)cc2)c(-c2ccnc(NCC(F)F)c2)s1` [compound 79], the log p is 2.39^[b] (pH 2.7) and 3.76^[c]; (pH 7.8).
With `C=C(C)C(=O)Nc1cc(-c2sc(CC)nc2-c2ccc(F)cc2)ccn1` [compound 90], the log p runs as follows: (pH 2.7) 3.6^[b]; (pH 7.8) 3.71^[c];.
